From EP4782447A1, “HETEROAROMATIC SULFONAMIDE STRUCTURAL COMPOUND, PHARMACEUTICAL COMPOSITION THEREOF, AND USE THEREOF” (Shanghai Yingli Pharmaceutical Co., Ltd, priority 2023, dated 2025) come the findings set out here.

Molecules are shown by their SMILES.

The target in data set [1] is T1, PARG (389-976) (Homo sapiens, UniProt Q86W56).
T1 construct: 5 µL of PARG (389-976) (manufactured by ChemPartner Co., Ltd.) was added into the 384-well plate; purchased ChemPartner Co., Ltd
As to the kind of experiment: PARG enzyme inhibition assay (TR-FRET). Type of data set: biochemical. The note with it: PARG 1.5 pM, Bio PARylated His-TEV-PARP1 substrate 12 nM. The method, then:
The in vitro PARG assay experiment was performed in a standard 384-well plate with a total reaction volume of 15 µL. In a buffer solution (50 mM Tris-HCl pH 7.5, 30 mM KCl, 1 mM EDTA, 3 mM DTT, 0.01% Tween-20, 0.025% BSA), 5 µL of PARG (389-976) (manufactured by ChemPartner Co., Ltd.) was added into the 384-well plate containing test compounds (with various concentrations) to obtain a final concentration of 1.5 pM, followed by incubation at room temperature for 30 minutes. Subsequently, 5 µL of Bio PARylated His-TEV-PARP1 (2-1014) substrate (manufactured by ChemPartner Co., Ltd.) was added into the above reaction mixture to obtain a final concentration of 12 nM, and the reaction was carried out at room temperature for 30 minutes after the addition was completed. Then, 5 µL of detection reagent was added. The detection reagent was prepared by buffer solution (50 mM Tris-HCl pH 7.5, 30 mM KCl, 1 mM EDTA, 3 mM DTT, 0.01% Tween-20, 0.025% BSA) consisting of 3 µM compound PDD00017273, 9 nM Mab anti-6HIS XL665 (Cisbio: 61HISXLA) and 0.9 nM streptavidin cryptate (Cisbio: 610SATLA). All three components were used at 3X working concentration, corresponding to final concentrations of 1 µM, 3 nM and 0.3 nM, respectively. After incubation at room temperature for 120 minutes in the dark place, the TR-FRET signals were measured at an excitation wavelength (Ex) of 340 nm, emission wavelengths (Em) of 665 nm and 615 nm. The ratio for each well was calculated as Em 665 / Em 615, and the compound inhibition rate was determined based on the obtained data. Table 1 Biochemical activity against PARG of the representative compounds of the rresent invention

Data set [2] is described as follows: Pharmacokinetic study of mice via intravenous injection and oral administration. It is filed as in vivo. Conditions: mouse, male CD-1 mice, plasma, a: mixed blood samples, b: mean of individual samples. On the procedure: Plasma samples from male C57BL/6J mice or male CD-1 mice after intravenous injection and oral administration dosing with the tested compound, were collected from the orbital venous plexus at 8-9 time points (e.g., 5 min, 15 min, 30 min, 1 h, 2 h, 4 h, 7 h, 24 h or 5 min, 15 min, 30 min, 1 h, 2 h, 4 h, 6 h, 8 h, 24 h). The collected blood samples were transferred to microcentrifuge tubes containing EDTA-K2 anticoagulant, centrifuged at 4000 g and 4°C for 5 min. The resulting supernatant was pipetted and stored in a -75°C ± 15°C refrigerator . The compound concentrations in plasma samples at different time points were determined via LC-MS/MS, and the relevant pharmacokinetic parameters were calculated using WinNonlin software. Table 3-1 Pharmacokinetic determination results of the representative compounds of the present disclosure

Data set [3] concerns HCC1395. As to the kind of experiment: Inhibitory effect on cell line proliferation detected by CTG assay. The note with it: Homo sapiens, 168 h; HCC1395 cells, 7 days, CellTiter-Glo. It is filed as cell-based. On the procedure:
The relevant assays were performed in 3 84-well plates or 96-well plates. The detailed procedure is as follows: The tested cell suspension was added into 384-well or 96-well plates (excluding peripheral wells) (384-well plate: 50 µL; 96-well plate: 100 µL), and the plates were incubated in a carbon dioxide incubator overnight; specifically, HCC1395 and HCC1428 cells were incubated in a 5% carbon dioxide incubator at 37°C overnight. The tested compounds (9-10 compound concentration gradients via 3-fold serial dilution) were added into the corresponding well by a HPD300 micro-dosing instrument. The cell plates were incubated in a carbon dioxide incubator for 7 days; specifically, for HCC1395 and HCC1428 cells, maintaining the incubation condition at 5% carbon dioxide and 37°C throughout this period. On the day of detection, firstly, the 384-well or 96-well plates were equilibrated at room temperature for 10-30 minutes, and then CellTiter-Glo reagent was added into each plate (384-well plate: 25 µL; 96-well plate: 100 µL), the plates were shaked for 10 minutes in the dark place, and incubated for another 10 minutes. The plates were placed into the Victor NIVO microplate reader for measurement. The efficacy inhibition rate curves were ploted using XLFit software and the IC50 values were calculated. Table 2 Anti-proliferative activity assay results of the representative compounds of the present disclosure against cell lines
Background: In ATP-based viability assays light output follows the ATP content of the culture.

Data set [4] has as its system HCC1428 cell-derived tumors. The data set can be described thus: In vivo pharmacodynamic study, subcutaneously implanted HCC1428 tumor model. The note with it: 30 mg/kg PO, BID*28; BALB/c nude mice with subcutaneous HCC1428 tumors; start at average tumor volume 195 mm^3. The method, then:
Estrogen was administered to BALB/c nude mice via injection twice weekly until the end of the experiment, subcutaneous inoculation with 1×10^7 HCC1428 cells (suspended in 100 µL of RPMI medium supplemented with Matrigel at a 1:1 volume ratio). Grouping and drug administration were initiated when the average tumor volume reached 150-200 mm^3. During the experiment, the body weight of the mice and tumor size were measured twice weekly, and the clinical symptoms of the animals were observed and recorded daily. The length (a) and width (b) of the tumors were measured using a vernier caliper, and the tumor volume was calculated according to the formula: TV = a×b^2/2. The tumor growth inhibition rate (TGI, %) was calculated based on the tumor volume using the formula: TGI (%) = [1 - (Ti - T0)/ (Vi - V0)] ×100%, wherein Ti represents the mean tumor volume of the treatment group on the i-th day after grouping, T0 represents the mean tumor volume of the treatment group at the time of grouping, Vi represents the mean tumor volume of the vehicle control group on the i-th day after grouping, and V0 represents the mean tumor volume of the vehicle control group at the time of grouping.

Setting [5] is: Intravenous administration (5mg/kg).
Setting [6] is: in vivo, Intravenous administration (5mg/kg).
[7] abbreviates: in vivo, Oral administration (10mg/kg).

T1 sequence (Q86W56 389-976): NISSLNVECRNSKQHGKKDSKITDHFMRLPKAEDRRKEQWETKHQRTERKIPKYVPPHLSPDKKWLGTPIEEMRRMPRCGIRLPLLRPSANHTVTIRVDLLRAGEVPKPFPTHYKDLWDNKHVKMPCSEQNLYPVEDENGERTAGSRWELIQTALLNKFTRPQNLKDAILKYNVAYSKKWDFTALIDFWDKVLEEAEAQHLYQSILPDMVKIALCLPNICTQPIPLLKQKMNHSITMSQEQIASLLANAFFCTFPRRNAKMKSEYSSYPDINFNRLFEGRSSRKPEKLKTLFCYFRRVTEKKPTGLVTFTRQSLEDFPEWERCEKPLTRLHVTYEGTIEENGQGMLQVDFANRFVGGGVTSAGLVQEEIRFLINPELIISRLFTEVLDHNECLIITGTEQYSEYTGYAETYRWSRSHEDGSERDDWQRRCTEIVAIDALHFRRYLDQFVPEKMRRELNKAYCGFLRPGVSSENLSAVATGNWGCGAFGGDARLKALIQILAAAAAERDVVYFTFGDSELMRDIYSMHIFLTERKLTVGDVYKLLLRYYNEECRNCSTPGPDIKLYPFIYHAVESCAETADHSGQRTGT

The term IC50 denotes the midpoint of a concentration-inhibition curve. High values mean weaker potency, low ones greater potency. What is called AUC(0-inf) is the area under the concentration-time curve extrapolated to infinity. A lower AUC(0-inf) goes with less exposure. Usually AUC(0-t) stands for exposure summed from dosing to a finite time, without extrapolation to infinity. Higher therefore signals more exposure. The term Cmax denotes the peak of the concentration-time curve. On to `CC(C)C(=O)N1CC=C(c2c(F)c(S(=O)(=O)NC3(C#N)CC3)cc3c(-c4nnc(C(F)F)s4)nn(C)c23)CC1` [Compound 9], for which the half-maximal inhibitory concentration (IC50) in data set [1] is 0.56 nM. For the same compound, in data set [2] (setting [5]), the total exposure AUC(0-inf) was determined as 8560 ng·h/mL, the exposure AUC(0-t) is 8550 ng·h/mL and the clearance stood at 9.8 mL/min/kg. In data set [2] (Oral administration (10mg/kg)), the total exposure AUC(0-inf) was 11500 ng·h/mL, the AUC(0-t) stood at 11500 ng·h/mL and the maximum concentration (Cmax) was 6160 ng/mL. Half-maximal inhibition in data set [3] (IC50) required 0.0446 µM.

As for `CC(C)S(=O)(=O)N1CC=C(c2c(F)c(S(=O)(=O)NC3(C)CC3)cc3c(-c4nnc(C(F)F)s4)nn(C)c23)CC1` [Compound 7], the IC50 in data set [1] is 0.21 nM; in data set [3], 0.074 µM.

For the compound `CC1=C(c2c(F)c(S(=O)(=O)NC3(C)CC3)cc3c(-c4nnc(C(F)(F)F)s4)nn(C)c23)CCN(S(=O)(=O)C(C)C)C1` [Compound 5], the 50% inhibitory concentration (IC50) came out at 0.43 nM in data set [1] and 0.043 µM in data set [3].

`CC(C)C(=O)N1CC=C(c2c(F)c(S(=O)(=O)NC3(C)CC3)cc3c(-c4nnc(C(F)F)s4)nn(C)c23)CC1` [Compound 11] had an IC50 in data set [1] of 0.7 nM.

`CC(C)S(=O)(=O)N1CC=C(c2c(F)c(S(=O)(=O)NC3(C#N)CC3)cc3c(-c4nnc(C(F)F)s4)nn(C)c23)CC1` [Compound 3] returned a concentration for half-maximal inhibition (IC50) in data set [1] of 0.19 nM. In data set [2] (setting [5]), the area under the curve AUC(0-inf) worked out at 33700 ng·h/mL, the exposure AUC(0-t) stood at 33700 ng·h/mL and the clearance was 2.47 mL/min/kg. In data set [2] (Oral administration (10mg/kg)), this compound had an area under the curve AUC(0-inf) of 12000 ng·h/mL, an AUC(0-t) of 12000 ng·h/mL and a Cmax of 3300 ng/mL. The 50% inhibitory concentration (IC50) in data set [3] came out at 0.0992 µM.

Take `CC(C)S(=O)(=O)N1CC=C(c2c(F)c(S(=O)(=O)NC3(C)CC3)cc3c(-c4nnc(C(F)(F)F)s4)nn(C)c23)CC1` [Compound 6]: the 50% inhibitory concentration (IC50) in data set [1] came to 0.35 nM; in data set [3] it was 0.0913 µM.

For the compound `CC(C)S(=O)(=O)N1CC=C(c2c(F)c(S(=O)(=O)NC3(C#N)CC3)cc3c(-c4nnc(C(F)(F)F)s4)nn(C)c23)CC1` [Compound 1], it took 0.23 nM to reach half-maximal inhibition in data set [1] (IC50). In data set [2] (setting [5]), this compound had an area under the curve AUC(0-inf) of 44100 ng·h/mL, an AUC(0-t) of 44000 ng·h/mL and a clearance of 1.89 mL/min/kg. Further, in data set [2] (Oral administration (10mg/kg)), the area under the curve AUC(0-inf) was found to be 32800 ng·h/mL, the AUC(0-t) stood at 32800 ng·h/mL and the concentration peaked (Cmax) at 4320 ng/mL. In addition, in data set [4], the “Tumor Growth Inhibition Rate TGI (%)” value is recorded as 106.8%. In addition, in data set [3], the IC50 came to 0.0949 µM.

As for `CCC1=C(c2c(F)c(S(=O)(=O)NC3(C#N)CC3)cc3c(-c4nnc(C(F)(F)F)s4)nn(C)c23)CCN(S(=O)(=O)C(C)C)C1` [Compound 13], in data set [2] (setting [6]), the area under the curve AUC(0-inf) is 35900 ng·h/mL, the area under the curve AUC(0-t) is 35900 ng·h/mL and the clearance is 2.32 mL/min/kg. Also, in data set [2] (setting [7]), the area under the curve AUC(0-inf) is 25400 ng·h/mL, the AUC(0-t) amounted to 25400 ng·h/mL and the peak concentration (Cmax) amounted to 2500 ng/mL. This compound gave an IC50 in data set [3] of 0.0313 µM.

In data set [1], `CC1=C(c2c(F)c(S(=O)(=O)NC3(C#N)CC3)cc3c(-c4nnc(C(F)F)s4)nn(C)c23)CCN(S(=O)(=O)C(C)C)C1` [Compound 4] returned an IC50 of 0.48 nM. In data set [2] (setting [5]), the AUC(0-inf) is 20300 ng·h/mL, the AUC(0-t) worked out at 18400 ng·h/mL and the clearance was determined as 4.17 mL/min/kg. Besides, in data set [2] (Oral administration (10mg/kg)), the AUC(0-inf) turned out to be 11300 ng·h/mL, the AUC(0-t) was determined as 11000 ng·h/mL and the Cmax turned out to be 2010 ng/mL. Further, the IC50 in data set [3] turned out to be 0.0445 µM.

For the compound `CC1=C(c2c(F)c(S(=O)(=O)NC3(C)CC3)cc3c(-c4nnc(C(F)F)s4)nn(C)c23)CCN(S(=O)(=O)C(C)C)C1` [Compound 8], the half-inhibitory concentration (IC50) in data set [1] was 0.17 nM; in data set [3], 0.0322 µM.

`CC(C)C(=O)N1CC=C(c2c(F)c(S(=O)(=O)NC3(C#N)CC3)cc3c(-c4nnc(C(F)(F)F)s4)nn(C)c23)CC1` [Compound 10] showed a concentration for half-maximal inhibition (IC50) in data set [1] of 1.24 nM.

The compound `CC1=C(c2c(F)c(S(=O)(=O)NC3(C#N)CC3)cc3c(-c4nnc(C(F)(F)F)s4)nn(C)c23)CCN(S(=O)(=O)C(C)C)C1` [Compound 2] returned an IC50 in data set [1] of 0.3 nM. In data set [2] (setting [5]), this compound yielded an AUC(0-inf) of 50100 ng·h/mL, an AUC(0-t) of 49600 ng·h/mL and a clearance of 1.68 mL/min/kg. In data set [2] (Oral administration (10mg/kg)), this compound displayed an AUC(0-inf) of 46900 ng·h/mL, an area under the curve AUC(0-t) of 46700 ng·h/mL and a maximum concentration (Cmax) of 5370 ng/mL. Moreover, the concentration for half-maximal inhibition (IC50) in data set [3] came out at 0.0368 µM.
